Measurements as given in patent US6300313A, “Means for treating prostate hypertrophy and prostate cancer” (ASTA Medica Aktiengesellschaft, priority 1999, dated 2001).
Non-standard residues stand in square brackets, D forms with d. Residues, ends and D or L forms follow the SMILES beside them. dPhe(4-Cl) = N[C@H](Cc1ccc(Cl)cc1)C(=O)O; d2Nal = N[C@H](Cc1ccc2ccccc2c1)C(=O)O; dCit = NC(=O)NCCC[C@@H](N)C(=O)O; d3Pal = N[C@H](Cc1cccnc1)C(=O)O

How the values were obtained:
[1] = system: Prostate carcinoma patients; details: cited from earlier work
[2] = system: BPH; assay: Clinical therapy of BPH with Cetrorelix (Example 1); format: in vivo, patients; details: Example 1 therapy regimen
Description: Cetrorelix is administered in a dose of 0.5 mg to 2 mg daily for 4 to 8 weeks for the therapy of BPH. A dose of 5 mg to 30 mg, dispensed once per week or every 10 days also over a time period of 4 to 8 weeks as well as one every two weeks or one injection per month of 20 mg to 60 mg can also decisively improve the clinical symptoms and signs. […] The prostate volume decreases by 20 to 40% during the treatment time of 4 to 8 weeks. […] In addition, at least 30% of the patients achieve an improvement of the urine flow of 6 ml/sec with this therapy. This is almost equivalent to an improvement like that associated with the golden standard operation, and in considerably shorter time. […] These clinical benefits continue for at least 3 to 6 months after therapy. This allows a long-term therapy of BPH with only an intermittent treatment of 2 to max. 4 injection cycles over 4 to 8 weeks.

[3] = system: BPH patients; details: 500 μg every 12 hours for 4 weeks, cited from earlier work

For `CC(=O)N[C@H](Cc1ccc2ccccc2c1)C(=O)N[C@H](Cc1ccc(Cl)cc1)C(=O)N[C@H](Cc1cccnc1)C(=O)N[C@@H](CO)C(=O)N[C@@H](Cc1ccc(O)cc1)C(=O)N[C@H](CCCNC(N)=O)C(=O)N[C@@H](CC(C)C)C(=O)N[C@@H](CCCNC(=N)N)C(=O)N1CCC[C@H]1C(=O)N[C@H](C)C(N)=O` [Cetrorelix] (Ac-[d2Nal][dPhe(4-Cl)][d3Pal]SY[dCit]LRP[dA]-NH2), the “testosterone levels, initially” value ([1]; 500 μg every 12 hours for 6 weeks, initial phase) is given as “lowering in testosterone levels to a castration level”, the “overall condition of the patient” value ([1]; end of the 6 weeks of therapy) is given as “considerable improvement” and the “testosterone values at the end of therapy” value ([1]; end of the 6 weeks of therapy) is given as “castration levels”. For the same molecule, the quality of life [2] was “significant improvements”, the sexual performance [2] was “No limitations in sexual performance are observed” and the testosterone level [2] was “Submaximal decreases of testosterone occur, but these are above those levels associated with castration”. For the same molecule, the “increase of the peak flow of the urine” value ([2]; 4 to 8 weeks) was “approximately 3 ml/sec”, the “patients achieving an improvement of the urine flow of 6 ml/sec” value ([2]; 4 to 8 weeks) was “at least 30%” and the “symptoms of dysuria and prostate volume” value [3] was “distinct decrease”. The “testosterone levels, initially” value ([3]; initial phase) was “lowering in testosterone levels to a castration level” and the “testosterone levels in the course of treatment” value ([3]; no castration values during the last three weeks) was “fluctuated at subnormal levels”.
